From patent US6482921B1, “Uridyl peptide antibiotic (UPA) derivatives, their synthesis and use” (Essential Therapeutics, Inc., priority 1999, dated 2002)
Converted amounts (≈) assume the structure as drawn.

Experiments:
Format in all cases: cell-based
[1] = test system: Pasteurella multocida pm002; assay: MIC broth microdilution, P. multocida pm002 (wild type)
[2] = test system: Pseudomonas aeruginosa PAM 1135; assay: MIC broth microdilution, P. aeruginosa PAM 1135 (high level UPA resistance); conditions: P. aeruginosa PAM 1135 UPA1^r
[3] = test system: Pseudomonas aeruginosa PAM 1154; assay: MIC broth microdilution, P. aeruginosa PAM 1154 (OprM::Hg); conditions: P. aeruginosa PAM 1154 OprM::Hg
[4] = test system: Escherichia Coli MC 4100 AcrAB; assay: MIC broth microdilution, E. coli MC 4100 AcrAB (ΔAcrAB); conditions: E. coli AcrAB
[5] = test system: Pseudomonas aeruginosa PAM 1020; assay: MIC broth microdilution, P. aeruginosa PAM 1020 (wild type); conditions: P. aeruginosa PAM 1020
[6] = test system: Staphylococcus aureus 8325-4; assay: MIC broth microdilution, S. aureus 8325-4 (wild type); conditions: S. aureus 8325-4
[7] = test system: Escherichia Coli MC 4100 AcrAB UPA3r; assay: MIC broth microdilution, E. coli MC 4100 AcrAB UPA3r (ΔAcrAB, UPA resistant); conditions: E. coli AcrAB UPA3^r
Escherichia Coli MC 4100 = assay: MIC broth microdilution, E. coli MC 4100 (wild type); conditions: E. coli MC 4100
[8] = test system: Pseudomonas aeruginosa PAM 1323; assay: MIC broth microdilution, P. aeruginosa PAM 1323 (medium level UPA resistance)
Experimental: Compounds were tested against several panels of bacteria. In a first panel, Table 3, several strains of Pseudomonas aeruginosa, Escherichia coli and Staphylococcus aureus were employed as the target bacteria.
For the bacteria in Table 3, the assay was performed in Mueller-Hinton Broth (MHB) with a final bacterial inoculum of 5×10^5 CFU/ml and a final volume of 100 μl. Control drugs, including imipenem and pacidimycin 4, and the test compounds were prepared at a concentration which was twice the desired final concentration (256 μg/ml). Dilution of the controls and the test compounds was accomplished directly on the test plates by serial 2-fold dilution using a multi-channel pipette. Both a positive and a negative growth control was included in each plate.
The bacterial inocula were prepared as follows. Bacterial strains were grown overnight at 35° C. in MHB. […] The culture was then diluted 1:10 and allowed to grow for an additional one hour at 35° C. in a shaking incubator. The inocula were then prepared by diluting the early log phase (one hour) cultures 1:2000 with fresh MHB. A volume of 50 μl of the inocula was added to each well, resulting in an inoculum of approximately 5×10^5 CFU/ml. The exact inocula were determined by putting 10 μl of 10-fold serial dilution of the bacterial suspensions onto TSA. After overnight incubation at 35° C., colony-forming units were counted manually.
The microtiter plates were incubated for 20 hours at 35° C. and were then read using a microtiterplate reader (Molecular Devices) at 650 nm as well as being visually observed using a microtiterplate reading mirror.

[9] = test system: Staphylococcus aureus ATCC 29213; assay: MIC broth microdilution, S. aureus ATCC 29213 (wild type); conditions: S. aureus ATCC 29213

SMILES	MIC (μg/ml) Broth microdilution [1] [µg/mL]	MIC (μg/ml) Broth microdilution [2] [µg/mL]	MIC (μg/ml) Broth microdilution [3] [µg/mL]	MIC (μg/ml) Broth microdilution [4] [µg/mL]	MIC (μg/ml) Broth microdilution [5] [µg/mL]	MIC (μg/ml) Broth microdilution [6] [µg/mL]	MIC (μg/ml) Broth microdilution [7] [µg/mL]	MIC (μg/ml) Broth microdilution (Escherichia Coli MC 4100) [µg/mL]	MIC (μg/ml) Broth microdilution [8] [µg/mL]	MIC (μg/ml) Broth microdilution [9] [µg/mL]
CC(N)C(=O)N(C)C(C)C(NC(=O)C(CCc1ccccc1)NC(=O)NC(Cc1ccc(O)cc1)C(=O)O)C(=O)NCC1CC(O)C(n2ccc(=O)[nH]c2=O)O1 [Compound 137, 1-[5′-[(2S,3S)-N^3-L-Alanyl-N^2-[N-[[(1S)-1-carboxy-4-hydroxyphenethyl]carbamoyl]-L-homophenylalanyl]-N^3-methyl-2,3-diaminobutyramido]-3′,5′-dideoxy-α-L-arabinofuranosyl]uracil]	>512	>512	128 (≈ 164 µM)	16 (≈ 20.5 µM)	64 (≈ 82 µM)	>512	256 (≈ 328 µM)	512 (≈ 656 µM)	>512	>512
CC(C)CC(NC(=O)NC(Cc1ccc(O)cc1)C(=O)O)C(=O)NC(C(=O)NCC1CC(O)C(n2ccc(=O)[nH]c2=O)O1)C(C)N(C)C(=O)C(C)N [Compound 161, 1-[5′-[(2S,3S)-N^3-L-Alanyl-N^2-[N-[[(1S)-1-carboxy-4-hydroxyphenethyl)carbamoyl]-L-leucyl]-N^3-methyl-2,3-diaminobutyramido]-3′,5′-dideoxy-α-L-arabinofuranosyl]uracil]	512 (≈ 699 µM)	>512	8 (≈ 10.9 µM)	32 (≈ 43.7 µM)	16 (≈ 21.8 µM)	>512	256 (≈ 349 µM)	>512	256 (≈ 349 µM)	>512
CC(N)C(=O)N(C)C(C)C(NC(=O)C(Cc1ccccc1)NC(=O)NC(Cc1cccs1)C(=O)O)C(=O)NCC1CC(O)C(n2ccc(=O)[nH]c2=O)O1 [Compound 125, 1-[5′-[(2S,3S)-N^3-L-Alanyl-N^2-[N-[[(1S)-1-carboxy-2-(2-thienyl)ethyl]carbamoyl]-L-phenylalanyl]-N^3-methyl-2,3-diaminobutyramidol-3′,5′-dideoxy-α-L-arabinofuranosyl]uracil]	>512	>512	8 (≈ 10.6 µM)	8 (≈ 10.6 µM)	64 (≈ 84.6 µM)	>512	64 (≈ 84.6 µM)	>512	>512	>512
CC(C(NC(=O)C(Cc1ccccc1)NC(=O)NC(Cc1c[nH]c2ccccc12)C(=O)O)C(=O)NCC1CC(O)C(n2ccc(=O)[nH]c2=O)O1)N(C)C(=O)CCCCN [Compound 123, 1-[5′-[(2S,3S)-N^3-(5-Aminopentanoyl)-N^2-[N-[[(1S)-1-carboxy-2-indol-3-ylethyl]carbamoyl]-L-phenylalanyl]-N^3-methyl-2,3-diaminobutyramido]-3′,5′-dideoxy-α-L-arabinofuranosyl]uracil]	>512	256 (≈ 313 µM)	16 (≈ 19.6 µM)	4 (≈ 4.89 µM)	32 (≈ 39.1 µM)	>512	512 (≈ 626 µM)	512 (≈ 626 µM)	256 (≈ 313 µM)	>512
CC(N)C(=O)N(C)C(C)C(NC(=O)C(CCCCN)NC(=O)NC(Cc1c[nH]c2ccccc12)C(=O)O)C(=O)NCC1CC(O)C(n2ccc(=O)[nH]c2=O)O1 [Compound 148, 1-[5′-[(2S,3S)-N^3-L-Alanyl-N^2-[N-[[(1S)-1-carboxy-2-indol-3-ylethyl]carbamoyl]-L-lysinyl]-N^3-methyl-2,3-diaminobutyramido]-3′,5′-dideoxy-α-L-arabinofuranosyl]uracil]	>512	>512	8 (≈ 10.4 µM)	>512	128 (≈ 166 µM)	>512	>512	>512	>512	>512
CC(C(NC(=O)C(Cc1ccccc1)NC(=O)NC(Cc1ccc(O)cc1)C(=O)O)C(=O)NCC1CC(O)C(n2ccc(=O)[nH]c2=O)O1)N(C)C(=O)CN [Compound 102, 1-[5′-[(2S,3S)-N^2-[N-[[(1S)-1-Carboxy-4-hydroxyphenethyl]carbamoyl]-L-phenylalanyl]-N^3-glycyl-N^3-methyl-2,3-diaminobutyramido]-3′,5′-dideoxy-α-L-arabinofuranosyl]uracil]	256 (≈ 340 µM)	>512	8 (≈ 10.6 µM)	<1	32 (≈ 42.5 µM)	512 (≈ 680 µM)	16 (≈ 21.3 µM)	512 (≈ 680 µM)	512 (≈ 680 µM)	>512
CSCCC(N)C(=O)N(C)C(C)C(NC(=O)C(CCSC)NC(=O)NC(Cc1c[nH]c2ccccc12)C(=O)O)C(=O)NCC1CC(O)C(n2ccc(=O)[nH]c2=O)O1 [Compound 162, 1-[5′-[(2S,3S)-N^2-[N-[[(1S)-1-Carboxy-2-indol-3-ylethyl]carbamoyl]-L-methionyl]-N^3-L-methionyl-N^3-methyl-2,3-diaminobutyramido]-3′,5′-dideoxy-α-L-arabinofuranosyl]uracil]	512 (≈ 614 µM)	256 (≈ 307 µM)	16 (≈ 19.2 µM)	16 (≈ 19.2 µM)	64 (≈ 76.7 µM)	>512	512 (≈ 614 µM)	512 (≈ 614 µM)	256 (≈ 307 µM)	>512
CC(N)C(=O)N(C)C(C)C(NC(=O)C(Cc1ccc(F)cc1)NC(=O)NC(C(=O)O)c1ccccc1)C(=O)NCC1CC(O)C(n2ccc(=O)[nH]c2=O)O1 (mixture of isomers) [Compound 142, 1-[5′-[(2S,3S)-N^3-L-Alanyl-N^2-[N-[[α(S,R)-1-carboxy-phenmethyl]carbamoyl]-L-4-fluorophenylalanyl]-N^3-methyl-2,3-diaminobutyramidol-3′,5′-dideoxy-α-L-arabinofuranosyl]uracil]	>512	>512	64	4	512	>512	32	512	>512	>512
